For this assay, the system named is PIF receptors on C2C12 membranes. The assay can be described thus: Competitive binding of [35S]PIF to C2C12 membranes. Details: species or system mouse. The settings on record: result in words. As to the method:
Competitive binding of [^35S]PIF C2C12 membranes (200 μg) in PBS (250 μl) were incubated with 1, 5, 10, 50, 100, 500 or 1000 ng of either monoclonal antibody, chondroitin, dermatan or heparan sulfate and 20 nM (480 ng) of [^35S]PIF overnight at 4° C. The bound radioactivity was determined from the radioactivity in the pellet obtained by centrifugation at 13,000 g for 5 min.
The Kaff was determined according to a modification (Clark, B. R. and Todd, C. W. Avidin as a precipitant for biotin-labelled antibody in a radioimmunoassay for carcinoembryonic antigen. Anal. Biochem., 121: 257-262, 1982.) of the method of Muller (Muller, R.
Calculation of average antibody affinity in anti-hapten sera from data obtained by competitive radioimmunoassay. J. Immunol. Methods, 34: 345-352, 1980.). Kaff=^1/(It−Tt)(1−[…]+0.5b^2) where It is the inhibitor concentration at 50% inhibition of PIF binding; Tt the total PIF concentration; b the fraction of PIF bound in the absence of inhibitor.

Entries after “also recorded” stand apart in the source; their conditions may differ.

Take chondroitin sulfate: the “inhibition of binding of PIF to receptors on C2C12 membranes” value is “competitive inhibition; also recorded: specifically inhibited”.

heparan sulfate: the “inhibition of binding of PIF to receptors on C2C12 membranes” value is given as “not”.

Values taken from US8207310B2, “Antibodies to proteolysis inducing factor (PIF) receptor and methods of use thereof” (Ashton University, priority 2006, dated 2012).
